In patent US9693556B2, “Herbicidal pyridazinone derivatives” (SYNGENTA LIMITED, priority 2011, dated 2017):

Legend:
Format in all cases: in vivo
[1] = tested on: Alopecurus myosuroides (ALOMY); experiment: Pre-emergence herbicidal glasshouse test on Alopecurus myosuroides; details: pre-emergence; 1000 g/h; evaluated after 13 days
Method in brief: (§1)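 Application rate 1000 g/h, formulated in acetone/water (50:50) with 0.5% Tween 20 and sprayed onto pots sown 1 day (pre-emergence) or 8 days (post-emergence) earlier. Evaluation at 13 days rated damage from 1 (0-19%) to 5 (80-100%).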

Setaria faberi (SETFA) [2] = experiment: Pre-emergence herbicidal glasshouse test on Setaria faberi; details: pre-emergence; 1000 g/h; evaluated after 13 days
Method in brief: as §1

[3] = tested on: Echinochloa crus-galli (ECHCG); experiment: Pre-emergence herbicidal glasshouse test on Echinochloa crus-galli; details: pre-emergence; 1000 g/h; evaluated after 13 days
Method in brief: as §1

Solanum nigrum (SOLNI) [4] = experiment: Pre-emergence herbicidal glasshouse test on Solanum nigrum; details: pre-emergence; 1000 g/h; evaluated after 13 days
Method in brief: as §1

[5] = tested on: Amaranthus retoflexus (AMARE); experiment: Pre-emergence herbicidal glasshouse test on Amaranthus retoflexus; details: pre-emergence; 1000 g/h; evaluated after 13 days
Method in brief: as §1

[6] = tested on: Ipomoea hederacea (IPOHE); experiment: Pre-emergence herbicidal glasshouse test on Ipomoea hederacea; details: pre-emergence; 1000 g/h; evaluated after 13 days
Method in brief: as §1

[7] = tested on: Alopecurus myosuroides (ALOMY); experiment: Post-emergence herbicidal glasshouse test on Alopecurus myosuroides; details: post-emergence; 1000 g/h; evaluated after 13 days
Method in brief: as §1

Setaria faberi (SETFA) [8] = experiment: Post-emergence herbicidal glasshouse test on Setaria faberi; details: post-emergence; 1000 g/h; evaluated after 13 days
Method in brief: as §1

[9] = tested on: Echinochloa crus-galli (ECHCG); experiment: Post-emergence herbicidal glasshouse test on Echinochloa crus-galli; details: post-emergence; 1000 g/h; evaluated after 13 days
Method in brief: as §1

Solanum nigrum (SOLNI) [10] = experiment: Post-emergence herbicidal glasshouse test on Solanum nigrum; details: post-emergence; 1000 g/h; evaluated after 13 days
Method in brief: as §1

[11] = tested on: Amaranthus retoflexus (AMARE); experiment: Post-emergence herbicidal glasshouse test on Amaranthus retoflexus; details: post-emergence; 1000 g/h; evaluated after 13 days
Method in brief: as §1

[12] = tested on: Ipomoea hederacea (IPOHE); experiment: Post-emergence herbicidal glasshouse test on Ipomoea hederacea; details: post-emergence; 1000 g/h; evaluated after 13 days
Method in brief: as §1

Compound	PRE Application ALOMY herbicidal damage (five point scale) [1]	PRE Application SETFA herbicidal damage (five point scale) (Setaria faberi (SETFA) [2])	PRE Application ECHCG herbicidal damage (five point scale) [3]	PRE Application SOLNI herbicidal damage (five point scale) (Solanum nigrum (SOLNI) [4])	PRE Application AMARE herbicidal damage (five point scale) [5]	PRE Application IPOHE herbicidal damage (five point scale) [6]	POST Application ALOMY herbicidal damage (five point scale) [7]	POST Application SETFA herbicidal damage (five point scale) (Setaria faberi (SETFA) [8])	POST Application ECHCG herbicidal damage (five point scale) [9]	POST Application SOLNI herbicidal damage (five point scale) (Solanum nigrum (SOLNI) [10])	POST Application AMARE herbicidal damage (five point scale) [11]	POST Application IPOHE herbicidal damage (five point scale) [12]
Cn1ncc(-c2ccc(-c3ccccc3)cc2S(C)(=O)=O)c(O)c1=O [Compound 2.033]	4 (4=60-79% damage)	2 (2=20-39% damage)	4 (4=60-79% damage)	5 (5=80-100% damage)	5 (5=80-100% damage)	1 (1=0-19% damage)	5 (5=80-100% damage)	3 (3=40-59% damage)	5 (5=80-100% damage)	5 (5=80-100% damage)	5 (5=80-100% damage)	5 (5=80-100% damage)
Cn1ncc(-c2ccc(SCc3ccccc3)cc2S(C)(=O)=O)c(O)c1=O [Compound 2.035]	3 (3=40-59% damage)	2 (2=20-39% damage)	3 (3=40-59% damage)	5 (5=80-100% damage)	5 (5=80-100% damage)	3 (3=40-59% damage)	4 (4=60-79% damage)	5 (5=80-100% damage)	5 (5=80-100% damage)	5 (5=80-100% damage)	5 (5=80-100% damage)	5 (5=80-100% damage)
Cn1ncc(-c2ccc(S(=O)(=O)Cc3ccccc3)cc2S(C)(=O)=O)c(O)c1=O [Compound 2.036]	5 (5=80-100% damage)	5 (5=80-100% damage)	5 (5=80-100% damage)	5 (5=80-100% damage)	5 (5=80-100% damage)	5 (5=80-100% damage)	5 (5=80-100% damage)	5 (5=80-100% damage)	5 (5=80-100% damage)	5 (5=80-100% damage)	5 (5=80-100% damage)	5 (5=80-100% damage)
Cn1ncc(-c2ccc(S(=O)(=O)N3CCOCC3)cc2S(C)(=O)=O)c(O)c1=O [Compound 2.037]	3 (3=40-59% damage)	2 (2=20-39% damage)	5 (5=80-100% damage)	5 (5=80-100% damage)	5 (5=80-100% damage)	4 (4=60-79% damage)	3 (3=40-59% damage)	4 (4=60-79% damage)	5 (5=80-100% damage)	5 (5=80-100% damage)	5 (5=80-100% damage)	5 (5=80-100% damage)
CC(C)N(C)S(=O)(=O)c1ccc(-c2cnn(C)c(=O)c2O)c(S(C)(=O)=O)c1 [Compound 2.038]	5 (5=80-100% damage)	4 (4=60-79% damage)	5 (5=80-100% damage)	5 (5=80-100% damage)	5 (5=80-100% damage)	4 (4=60-79% damage)	4 (4=60-79% damage)	5 (5=80-100% damage)	5 (5=80-100% damage)	5 (5=80-100% damage)	5 (5=80-100% damage)	4 (4=60-79% damage)
Cn1nc(N)c(-c2ccc(C(F)(F)F)cc2S(C)(=O)=O)c(O)c1=O [Compound 2.039]	5 (5=80-100% damage)	5 (5=80-100% damage)	5 (5=80-100% damage)	5 (5=80-100% damage)	5 (5=80-100% damage)	5 (5=80-100% damage)	5 (5=80-100% damage)	5 (5=80-100% damage)	5 (5=80-100% damage)	5 (5=80-100% damage)	5 (5=80-100% damage)	5 (5=80-100% damage)
COCc1ccc(-c2cnn(C)c(=O)c2O)c(S(C)(=O)=O)c1 [Compound 2.040]	5 (5=80-100% damage)	4 (4=60-79% damage)	5 (5=80-100% damage)	5 (5=80-100% damage)	5 (5=80-100% damage)	3 (3=40-59% damage)	5 (5=80-100% damage)	5 (5=80-100% damage)	5 (5=80-100% damage)	5 (5=80-100% damage)	5 (5=80-100% damage)	5 (5=80-100% damage)
COc1nn(C)c(=O)c(O)c1-c1ccc(C(F)(F)F)cc1S(C)(=O)=O [Compound 2.041]	5 (5=80-100% damage)	5 (5=80-100% damage)	5 (5=80-100% damage)	5 (5=80-100% damage)	5 (5=80-100% damage)	5 (5=80-100% damage)	5 (5=80-100% damage)	5 (5=80-100% damage)	5 (5=80-100% damage)	5 (5=80-100% damage)	5 (5=80-100% damage)	5 (5=80-100% damage)
CC(C)OCc1ccc(-c2cnn(C)c(=O)c2O)c(S(C)(=O)=O)c1 [Compound 2.043]	3 (3=40-59% damage)	1 (1=0-19% damage)	5 (5=80-100% damage)	5 (5=80-100% damage)	5 (5=80-100% damage)	2 (2=20-39% damage)	3 (3=40-59% damage)	4 (4=60-79% damage)	5 (5=80-100% damage)	5 (5=80-100% damage)	5 (5=80-100% damage)	5 (5=80-100% damage)
Cn1ncc(-c2ccc(C(F)(F)F)cc2S(=O)(=O)Cc2ccccc2)c(O)c1=O [Compound 2.047]	1 (1=0-19% damage)	1 (1=0-19% damage)	5 (5=80-100% damage)	4 (4=60-79% damage)	2 (2=20-39% damage)	1 (1=0-19% damage)	3 (3=40-59% damage)	3 (3=40-59% damage)	5 (5=80-100% damage)	5 (5=80-100% damage)	5 (5=80-100% damage)	4 (4=60-79% damage)
